Assay results taken from US11149035B2, “Chemical compounds as H—PGDS inhibitors” (GlaxoSmithKline Intellectual Property Development Limited, priority 2017, dated 2021).

Each compound was assayed against T1, haematopoietic prostaglandin D synthase (H-PGDS) (Homo sapiens, UniProt O60760) (assay: H-PGDS RapidFire high throughput mass spectrometry assay (conversion of PGH2 to PGD2)). Details: 10 nM H-PGDS, PGH2 formed in situ by COX-2 from arachidonic acid; four parameter curve fit; read-out: Potency Range (mean pIC50) (converted).
T1 construct: Full length human H-PGDS cDNA (Invitrogen Ultimate ORF IOH13026) was amplified by PCR; 6-His (N); TEV protease cleavage site (N); made in house; host or cells: E. coli BL21 (DE3*)
Type: biochemical
Procedure: The H-PGDS RapidFire™ mass spectrometric assay monitors conversion of prostaglandin H2 (PGH2) to prostaglandin D2 (PGD2) by haematopoietic prostaglandin D synthase (H-PGDS). In the assay format described here, the substrate (PGH2) is formed in situ by the action of cyclooxygenase-2 on arachidonic acid. This first step is set up to be fast, and generates a burst of PGH2 at ˜10 μM. The PGH2 is then further converted to PGD2 by the H-PGDS enzyme. […] Plates are then read on the RapidFire™ high throughput solid phase extraction system (Agilent) which incorporates a solid phase extraction step coupled to a triple quadrupole mass spectrometer (AB SCIEX). Relative levels of PGD2 and PGF2α, which acts as a surrogate for substrate, are measured and a percent conversion calculated. Inhibitors are characterised as compounds which lower the conversion of PGH2 to PGD2.
Full length human H-PGDS cDNA (Invitrogen Ultimate ORF IOH13026) was amplified by PCR with the addition of a 5′ 6-His tag and TEV protease cleavage site. The PCR product was digested with NdeI and XhoI and ligated into pET22b+ (Merck Novagen®). Expression was carried out in E. coli strain BL21 (DE3*) using auto-induction Overnight Express™ Instant TB medium (Merck Novagen®) supplemented with 1% glycerol. The culture was first grown at 37° C. and the temperature was reduced to 25° C. when OD600 reached 2.0. Cells were harvested by centrifugation after a further 18 hours. 10 g of E. coli cell pellet was suspended to a total volume of 80 mL in lysis buffer (20 mM Tris-Cl pH 7.5, 300 mM NaCl, 20 mM imidazole, 5 mM β-mercaptoethanol, 10% glycerol). 1 mg/mL protease inhibitors (Protease Inhibitor Cocktail Set III, Merck Calbiochem®) and 1 mg/mL lysozyme were added to the cell suspension. The suspension was then sonicated for 5 min (UltraSonic Processor VCX 750, Cole-Parmer Instrument Co.) with a micro probe (50% amplitude, 10 sec on/off) and then centrifuged at 100,000 g for 90 minutes (at 4° C.). The supernatant was loaded onto a Ni-NTA HiTrap column (5 mL, GE Healthcare, pre-equilibrated in lysis buffer). The column was washed with 10 column volumes of lysis buffer and eluted with lysis buffer containing 500 mM imidazole. The pooled protein peak fractions were concentrated using a 10 kDa centrifugal filter at 3500 g and 4° C. (Amicon Ultra-15 centrifugal filter unit with Ultracel-10 membrane from Millipore). Further purification of the concentrated protein was carried out using gel filtration chromatography on a HiLoad 26/600 Superdex 75 preparative grade column (GE Healthcare Life Sciences) using 50 mM Tris pH 7.5, 50 mM NaCl, 1 mM dithiothreitol, 1 mM MgCl2. Fractions containing the protein were pooled, concentrated as described above, and stored at −80° C.
The full length human COX-2 gene (accession number L15326) was amplified by PCR to generate an EcoRI—HindIII fragment containing an in-frame FLAG tag. This was subcloned into pFastBac 1 (Invitrogen). The COX-2 FLAG plasmid was recombined into the baculovirus genome according to the BAC-to-BAC protocol described by Invitrogen. Transfection into Spodoptera frugiperda (Sf9) insect cells was performed using Cellfectin (Invitrogen), according to the manufacturer's protocol. Super Sf9 cells were cultured in EX420 media (SAFC Biosciences) to a density of approximately 1.5×10^6 cells/mL within a wave bioreactor. Recombinant virus was added at a Multiplicity of Infection (MOI) of 5 and the culture was allowed to continue for 3 days. Cells were harvested using a continuous feed centrifuge run at 2500 g at a rate of approximately 2 L/min with cooling. The resultant cell slurry was re-centrifuged in pots (2500 g, 20 min, 4° C.) and the cell paste was stored at −80° C. 342 g of cell paste was re-suspended to a final volume of 1600 mL in a buffer of 20 mM Tris-Cl pH 7.4, 150 mM NaCl, 0.1 mM EDTA, 1.3% w/v n-octyl-[…] containing 20 Complete EDTA-free Protease Inhibitor Cocktail tablets (Roche Applied Science). […]

T1 sequence (O60760 whole entry): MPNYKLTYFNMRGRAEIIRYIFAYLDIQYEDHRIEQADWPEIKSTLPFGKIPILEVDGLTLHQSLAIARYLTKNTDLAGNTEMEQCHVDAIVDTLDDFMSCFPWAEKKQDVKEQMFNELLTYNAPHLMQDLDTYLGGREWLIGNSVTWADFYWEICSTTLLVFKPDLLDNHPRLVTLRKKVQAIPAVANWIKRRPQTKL

| Compound | IC50 [µM] |
| --- | --- |
| C[C@H]1CCN1c1cc2ncc(C(=O)NC3CCN(C(=O)C(C)(C)O)CC3)cc2cn1 [Example 24, (S)—N-(1-(2-Hydroxy-2-methylpropanoyl)piperidin-4-yl)-7-(2-methylazetidin-1-yl)-1,6-naphthyridine-3-carboxamide] | 0.01 to 0.0794 |
| CC(C)(O)[C@H]1CC[C@H](NC(=O)c2cnc3nc(N4CCC4)c(Cl)cc3c2)CC1 [Example 25, 7-(Azetidin-1-yl)-6-chloro-N-(trans-4-(2-hydroxypropan-2-yl)cyclohexyl)-1,8-naphthyridine-3-carboxamide] | < 0.01 |
| C[C@H]1CCN1c1cc2ncc(C(=O)N[C@H]3C[C@H](C(C)(C)O)C3)cc2cn1 [Example 26, N-(trans-3-(2-Hydroxypropan-2-yl)cyclobutyl)-7-((S)-2-methylazetidin-1-yl)-1,6-naphthyridine-3-carboxamide] | 0.01 to 0.0794 |
| CC(C)(O)[C@H]1CC[C@H](NC(=O)c2cnc3nc(C4CC4)c(Cl)cc3c2)CC1 [Example 27, 6-Chloro-7-cyclopropyl-N-((trans)-4-(2-hydroxypropan-2-yl)cyclohexyl)-1,8-naphthyridine-3-carboxamide] | < 0.01 |
| C[C@@H]1CNC(=O)[C@H]1NC(=O)c1cnc2cc(N3CC[C@@H]3C)ncc2c1 [Example 28, N-((3S,4R)-4-Methyl-2-oxopyrrolidin-3-yl)-7-((S)-2-methylazetidin-1-yl)-1,6-naphthyridine-3-carboxamide] | 0.01 to 0.0794 |
| O=C(N[C@H]1CCNC1=O)c1cnc2cc(C3CC3)ncc2c1 [Example 29, (S)-7-Cyclopropyl-N-(2-oxopyrrolidin-3-yl)-1,6-naphthyridine-3-carboxamide] | 0.01 to 0.0794 |
| C[C@]1(O)CC[C@H](NC(=O)c2cnc3cc(C4CC4)ncc3c2)CC1 [Example 30, 7-Cyclopropyl-N-((1r,4r)-4-hydroxy-4-methylcyclohexyl)-1,6-naphthyridine-3-carboxamide] | 0.1 to 1 |
| C[C@]1(O)C[C@@H](NC(=O)c2cnc3cc(C4CC4)ncc3c2)C1 [Example 31, 7-Cyclopropyl-N-((1s,3s)-3-hydroxy-3-methylcyclobutyl)-1,6-naphthyridine-3-carboxamide] | 0.1 to 1 |
| CC(C)(O)[C@H]1C[C@H](NC(=O)c2cnc3cc(C4CC4)ncc3c2)C1 [Example 32, 7-Cyclopropyl-N-(trans-3-(2-hydroxypropan-2-yl)cyclobutyl)-1,6-naphthyridine-3-carboxamide] | 0.01 to 0.0794 |
| O=C(N[C@H]1CC[C@@](O)(C(F)F)CC1)c1cnc2cc(C3CC3)ncc2c1 [Example 33, 7-Cyclopropyl-N-((1r,4r)-4-(difluoromethyl)-4-hydroxycyclohexyl)-1,6-naphthyridine-3-carboxamide] | 0.1 to 1 |
| O=C(N[C@H]1CC[C@H](N2CC(F)C2)CC1)c1cnc2cc(C3CC3)ncc2c1 [Example 35, 7-Cyclopropyl-N-(trans-4-(3-fluoroazetidin-1-yl)cyclohexyl)-1,6-naphthyridine-3-carboxamide] | 0.01 to 0.0794 |
| O=C(N[C@H]1CC[C@](O)(C(F)F)CC1)c1cnc2cc(C3CC3)ncc2c1 [Example 36, 7-Cyclopropyl-N-((1s,4s)-4-(difluoromethyl)-4-hydroxycyclohexyl)-1,6-naphthyridine-3-carboxamide] | 0.1 to 1 |
| O=C(N[C@H]1CC[C@H](N[C@H](CO)C(F)(F)F)CC1)c1cnc2cc(C3CC3)ncc2c1 [Example 37, 7-Cyclopropyl-N-((trans)-4-(((R)-1,1,1-trifluoro-3-hydroxypropan-2-yl)amino)cyclohexyl)-1,6-naphthyridine-3-carboxamide] | 0.01 to 0.0794 |
| O=C(N[C@H]1CC[C@H](N2CC(F)(F)C2)CC1)c1cnc2cc(C3CC3)ncc2c1 [Example 38, 7-Cyclopropyl-N-(trans-4-(3,3-difluoroazetidin-1-yl)cyclohexyl)-1,6-naphthyridine-3-carboxamide] | 0.01 to 0.0794 |
| O=C(N[C@H]1C[C@](O)(C(F)(F)F)C1)c1cnc2cc(C3CC3)ncc2c1 [Example 40, 7-Cyclopropyl-N-((1s,3s)-3-hydroxy-3-(trifluoromethyl)cyclobutyl)-1,6-naphthyridine-3-carboxamide] | 0.1 to 1 |
| C[C@]1(O)C[C@H](NC(=O)c2cnc3cc(C4CC4)ncc3c2)C1 [Example 41, 7-Cyclopropyl-N-((1r,3s)-3-hydroxy-3-methylcyclobutyl)-1,6-naphthyridine-3-carboxamide] | 0.1 to 1 |
| O=C(N[C@H]1C[C@@H](N[C@H](CO)C(F)(F)F)C1)c1cnc2cc(C3CC3)ncc2c1 [Example 42, 7-Cyclopropyl-N-(cis-3-(((R)-1,1,1-trifluoro-3-hydroxypropan-2-yl)amino)cyclobutyl)-1,6-naphthyridine-3-carboxamide] | 0.1 to 1 |
| O=C(N[C@H]1C[C@H](N[C@H](CO)C(F)(F)F)C1)c1cnc2cc(C3CC3)ncc2c1 [Example 43, 7-Cyclopropyl-N-(trans-3-(((R)-1,1,1-trifluoro-3-hydroxypropan-2-yl)amino)cyclobutyl)-1,6-naphthyridine-3-carboxamide] | 0.1 to 1 |
| O=C(N[C@H]1CCNC1=O)c1cnc2nc(C3CC3)ccc2c1 [Example 44, (S)-7-Cyclopropyl-N-(2-oxopyrrolidin-3-yl)-1,8-naphthyridine-3-carboxamide] | 0.01 to 0.0794 |
| C[C@]1(O)C[C@@H](NC(=O)c2cnc3nc(C4CC4)ccc3c2)C1 [Example 45, 7-Cyclopropyl-N-((1s,3s)-3-hydroxy-3-methylcyclobutyl)-1,8-naphthyridine-3-carboxamide] | 0.1 to 1 |
| C[C@]1(O)C[C@H](NC(=O)c2cnc3nc(C4CC4)ccc3c2)C1 [Example 46, 7-Cyclopropyl-N-((1r,3s)-3-hydroxy-3-methylcyclobutyl)-1,8-naphthyridine-3-carboxamide] | 0.1 to 1 |
| CC(C)(O)[C@H]1C[C@H](NC(=O)c2cnc3nc(C4CC4)ccc3c2)C1 [Example 47, 7-Cyclopropyl-N-(trans-3-(2-hydroxypropan-2-yl)cyclobutyl)-1,8-naphthyridine-3-carboxamide] | 0.01 to 0.0794 |
| C[C@]1(O)CC[C@H](NC(=O)c2cnc3nc(C4CC4)ccc3c2)CC1 [Example 48, 7-Cyclopropyl-N-((1r,4r)-4-hydroxy-4-methylcyclohexyl)-1,8-naphthyridine-3-carboxamide] | 0.01 to 0.0794 |
| COc1ccc2cc(C(=O)N[C@H]3CC[C@H](C(C)(C)O)CC3)cnc2n1 [Example 50, N-(trans-4-(2-Hydroxypropan-2-yl)cyclohexyl)-7-methoxy-1,8-naphthyridine-3-carboxamide] | 0.01 to 0.0794 |
| COc1cc2ncc(C(=O)N[C@H]3CC[C@H](C(C)(C)O)CC3)cc2cn1 [Example 51, N-(trans-4-(2-Hydroxypropan-2-yl)cyclohexyl)-7-methoxy-1,6-naphthyridine-3-carboxamide] | 0.01 to 0.0794 |
| O=C(N[C@H]1CC[C@@](O)(C(F)F)CC1)c1cnc2nc(C3CC3)ccc2c1 [Example 52, 7-Cyclopropyl-N-((1r,4r)-4-(difluoromethyl)-4-hydroxycyclohexyl)-1,8-naphthyridine-3-carboxamide] | 0.1 to 1 |
